According to patent publication US4129737A, “Process for the preparation of an 8-alkyl-5-oxo-5,8-dihydro-pyrido(2,3-d)pyrimidine-6-carboxylic acid” (priority 1972, dated 1978):
Values after ≈ are worked out from the molar mass of the structure shown. Where two headings read alike, the source gives them in different places.

How the values were obtained:
Staphylococcus 209 P = assay: Minimum inhibitory concentration by agar dilution, Staphylococcus 209 P; assay type: cell-based; conditions: Staphylococcus, 37° C., 18 hours, read-out: minimum inhibitory concentration (M.I.C.)
B. subtilis = assay: Minimum inhibitory concentration by agar dilution, B. subtilis; assay type: cell-based; conditions: Bacillus subtilis, 37° C., 18 hours, read-out: minimum inhibitory concentration (M.I.C.)
Bord. bronchiseptica = assay: Minimum inhibitory concentration by agar dilution, Bord. bronchiseptica; assay type: cell-based; conditions: Bordetella bronchiseptica, 37° C., 18 hours, read-out: minimum inhibitory concentration (M.I.C.)
Klebs. pneumoniae = assay: Minimum inhibitory concentration by agar dilution, Klebs. pneumoniae; assay type: cell-based; conditions: Klebsiella pneumoniae, 37° C., 18 hours, read-out: minimum inhibitory concentration (M.I.C.)
Salm. typhi = assay: Minimum inhibitory concentration by agar dilution, Salm. typhi; assay type: cell-based; conditions: Salmonella enterica, 18 h
Sh. sonnei = assay: Minimum inhibitory concentration by agar dilution, Sh. sonnei; assay type: cell-based; conditions: Shigella sonnei, 37° C., 18 hours, read-out: minimum inhibitory concentration (M.I.C.)
Pr. vulgaris = assay: Minimum inhibitory concentration by agar dilution, Pr. vulgaris; assay type: cell-based; conditions: Proteus vulgaris, 37° C., 18 hours, read-out: minimum inhibitory concentration (M.I.C.)
Pr. mirabilis = assay: Minimum inhibitory concentration by agar dilution, Pr. mirabilis; assay type: cell-based; conditions: Proteus mirabilis, 37° C., 18 hours, read-out: minimum inhibitory concentration (M.I.C.)
Pr. morganii = assay: Minimum inhibitory concentration by agar dilution, Pr. morganii; assay type: cell-based; conditions: Morganella morganii, 37° C., 18 hours, read-out: minimum inhibitory concentration (M.I.C.)
Esch 111 B4 = assay: Average MIC, solid medium (nutrient agar) dilution method; assay type: cell-based; conditions: 18 h, average of five determinations, read-out: minimum inhibitory concentration, average
[1] = tested on: Gram-negative microorganisms; assay: In vitro anti-microbial activity on agar media, overall; assay type: cell-based
Procedure: The products were tested on three Gram positive microorganisms (1 to 3) […] and on 10 Gram negative microorganisms (4 to 13).

mice = assay: Oral toxicity in mice; assay type: in vivo; conditions: doses as high as 4 g per kilogram
[2] = Absorption and elimination after oral administration; assay type: in vivo
[3] = Toxicity, overall statement; conditions: in vivo
Staphylococcus 209P = assay: Average MIC, solid medium (nutrient agar) dilution method; conditions: 18 h, read-out: minimum inhibitory concentration, average
Staphylococcus 9144 = assay: as above; conditions: Staphylococcus, 9144, 18 h, read-out: minimum inhibitory concentration, average
Streptococcus DM19 = assay: as above; conditions: DM19, 18 h, read-out: minimum inhibitory concentration, average
B. subtilis 6633 = assay: as above; conditions: Bacillus subtilis, 6633, 18 h, read-out: minimum inhibitory concentration, average
Bord. bronch. 4617 = assay: as above; conditions: 18 h, read-out: minimum inhibitory concentration, average
Ps. aeruginosa A22 = assay: as above; conditions: Pseudomonas aeruginosa, A22, 18 h, read-out: minimum inhibitory concentration, average
Esch. coli. 95 I.S.M. = assay: as above; conditions: Escherichia coli, 18 h, read-out: minimum inhibitory concentration, average
Esch. coli. LRB 45 = assay: as above; conditions: Escherichia coli, 18 h, read-out: minimum inhibitory concentration, average
Esch. coli. LRB 67 = assay: as above; conditions: Escherichia coli, 18 h, read-out: minimum inhibitory concentration, average
Esch. coli. Cho = assay: as above; conditions: Escherichia coli, 18 h, read-out: minimum inhibitory concentration, average
Klebs. pneumoniae 10.031 = assay: as above; conditions: Klebsiella pneumoniae, 10.031, 18 h, read-out: minimum inhibitory concentration, average
S. oranienburg 10-66 = assay: as above; conditions: Salmonella enterica, 1066, 18 h, read-out: minimum inhibitory concentration, average
Arizona 6211 = assay: as above; conditions: 18 h, read-out: minimum inhibitory concentration, average
Pr. mirabilis Nig = assay: as above; conditions: Proteus mirabilis, 18 h, read-out: minimum inhibitory concentration, average
[4] = N.A. (nutrient agar, pH 6.8), Table I
[5] = T.S.A. (trypticase soya medium, pH 7.3)

Question: Which results are given for `CCn1cc(C(=O)O)c(=O)c2cnc(N3CCNCC3)nc21` [Example VIII, 2-Piperazino-5-oxo-8-ethyl-5,8-dihydro-pyrido(2,3-d)pyrimidine-6-carboxylicacid]?
Answer: MIC (Staphylococcus 209 P; [4]): 12.5 µg/mL (≈ 41.2 µM); MIC (Staphylococcus 209 P; [5]): 12.5 µg/mL (≈ 41.2 µM); MIC (B. subtilis; [4]): 3.1 µg/mL (≈ 10.2 µM); MIC (B. subtilis; [5]): 6.2 µg/mL (≈ 20.4 µM); MIC (Bord. bronchiseptica; [4]): 12.5 µg/mL (≈ 41.2 µM); MIC (Bord. bronchiseptica; [5]): 50 µg/mL (≈ 165 µM); MIC (Klebs. pneumoniae; [4]): 0.8 µg/mL (≈ 2.64 µM); MIC (Klebs. pneumoniae; [5]): 1.6 µg/mL (≈ 5.27 µM); MIC (Salm. typhi; pH 6.8, read-out: minimum inhibitory concentration (M.I.C.)): 6.2 µg/mL (≈ 20.4 µM); MIC (Salm. typhi; pH 7.3, read-out: minimum inhibitory concentration (M.I.C.)): 1.6 µg/mL (≈ 5.27 µM); MIC (Sh. sonnei; [4]): 0.8 µg/mL (≈ 2.64 µM); MIC (Sh. sonnei; [5]): 0.8 µg/mL (≈ 2.64 µM); MIC (Pr. vulgaris; [4]): 6.2 µg/mL (≈ 20.4 µM); MIC (Pr. vulgaris; [5]): 1.6 µg/mL (≈ 5.27 µM); MIC (Pr. mirabilis; [4]): 0.8 µg/mL (≈ 2.64 µM); MIC (Pr. mirabilis; [5]): 0.8 µg/mL (≈ 2.64 µM); MIC (Pr. morganii; [4]): 0.8 µg/mL (≈ 2.64 µM); MIC (Pr. morganii; [5]): 0.8 µg/mL (≈ 2.64 µM); MIC (Esch 111 B4): 1.64 µg/mL (≈ 5.41 µM); activity against Gram-negative microorganisms ([1]; in vitro): particularly active against Gram-negative microorganisms; activity compared with nalidixic acid and the acid of Example III ([1]; majority of the Gram negative microorganisms, Table III): more active on the majority of the Gram negative microorganisms than the 2 other substances; deaths (mice): no deaths were observed; absorption [2]: absorbed rapidly; elimination [2]: eliminated principally in the urine; urinary concentrations relative to minimum inhibitory concentrations ([2]; even with low doses, majority of Gram negative microorganisms): very much greater than the minimum inhibitory concentrations; toxicity [3]: very low toxicity; MIC (Staphylococcus 209P): 6.22 µg/mL (≈ 20.5 µM); MIC (Staphylococcus 9144): 6.22 µg/mL (≈ 20.5 µM); MIC (Streptococcus DM19): 100 µg/mL (≈ 330 µM); MIC (B. subtilis 6633): 8.1 µg/mL (≈ 26.7 µM); MIC (Bord. bronch. 4617): 75 µg/mL (≈ 247 µM); MIC (Ps. aeruginosa A22): 12.5 µg/mL (≈ 41.2 µM); MIC (Esch. coli. 95 I.S.M.): 5.14 µg/mL (≈ 16.9 µM); MIC (Esch. coli. LRB 45): 2.04 µg/mL (≈ 6.73 µM); MIC (Esch. coli. LRB 67): 1.2 µg/mL (≈ 3.96 µM); MIC (Esch. coli. Cho): 2.66 µg/mL (≈ 8.77 µM); MIC (Klebs. pneumoniae 10.031): 1.88 µg/mL (≈ 6.2 µM); MIC (S. oranienburg 10-66): 27.5 µg/mL (≈ 90.7 µM); MIC (Arizona 6211): 1.26 µg/mL (≈ 4.15 µM); MIC (Pr. mirabilis Nig): 1.58 µg/mL (≈ 5.21 µM)
